# Laboratory results reported in US11466273B2, “Monocarboxylate transporter 4 (MCT4) antisense oligonucleotide (ASO) inhibitors for use as therapeutics in the treatment of cancer” (THE UNIVERSITY OF BRITISH COLUMBIA, priority 2015, dated 2022).
# Strand notation (5' to 3'): a small letter for the sugar, then the base; units joined by * are phosphorothioate-linked, units joined directly phosphodiester-linked; [ ] holds rarer units or linkages, { } end groups; capitals alone tell only the bases. d = 2'-deoxy (DNA)
# Test system: MCT4
# Assay: Percent inhibition of MCT4 by MCT4 ASOs (knock-down after transfection, qPCR/Western blot)
# Type: cell-based, human
# Settings: Table A; ASOs transfected at 100 nM for 48 hours unless otherwise indicated
# Method: First-generation phosphorothioate-modified ASOs against human MCT4 were rationally designed by selecting sequences containing favourable motifs while excluding unfavourable ones (Matveeva et al., 2000). Specificity of MCT4-targeting sequences, compared to human and mouse genes (at least 3 of 20 bases mismatched), was evaluated using BLAST. Ten sequences SEQ ID No: 1, 4, 5, 9, 11, 30, 36, 37, 40 and 41 (see TABLE A) distributed throughout the length of the transcript with perfect complementarity to all human MCT4 transcript variants (NM_001042422.2, NM_001042423.2, NM_001206950.1, NM_001206951.1, NM_001206952.1, and NM_004207.3) were selected and synthesized by Eurofins MWG Operon. The knock-down efficiencies of these ten ASOs were tested by determining target mRNA and protein expression 48 hours after transfection of cells using qPCR and Western blotting. Two candidate ASOs (#1 and #14—SEQ ID NOs: 1 and 5, respectively) were selected for further studies. Sequences: ASO #1 (SEQ ID NO: 1), 5′-[…]-3′; ASO #14 (SEQ ID NO: 5), 5′-[…]-3′; a published non-targeting control ASO, 5′-[…]-3′ (Mullick et al., 2011; Samuel et al., 2006).
# Cells were transfected in 6-well plates with ASOs at 100 nM for 48 hours (unless otherwise indicated) using Oligofectamine™ (Invitrogen™, Carlsbad, Calif.) or with MCT4-targeting siRNAs and controls (Dharmacon™, Chicago, Ill.) at 50 nM for 48 hours using Lipofectamine™ 2000 (Invitrogen™), following the manufacturer's instructions.
# Total RNA was isolated using the RNeasy Mini Kit™ (Qiagen Inc.™, Hilden, Germany) and cDNA synthesized using the QuantiTect Reverse Transcription Kit™ (Qiagen™). Primers were designed using Primer-BLAST™. qRT-PCR reactions using KAPA SYBR Fast Universal™ (Kapa Biosystems™, Woburn, Mass.) were performed in triplicate in a ViiA 7 Real-Time PCR™ system (Applied Biosystems™, Foster City, Calif.). Target genes were normalized to a geometric average of 3 internal reference genes (Vandesompele et al., 2002).
# Cells were harvested and lysed in RIPA buffer (50 mM Tris-Cl pH 7.4, 150 mM NaCl, 1% Igepal, 0.5% Na-deoxycholate, 0.1% SDS) supplemented with a complete protease inhibitor cocktail (Roche, Nutley, N.J.). The protein concentration of the lysate was determined by Pierce BCA Protein Assay™ (Thermo Scientific™, Waltham, Mass.). The lysate was run on 8% SDS polyacrylamide gel (20 ug of protein per lane) and proteins were transferred onto PVDF membrane (Millipore™, Billerica, Mass.). The blot was blocked with the Odyssey™ blocking buffer (Li-cor Biosciences™) and probed with anti-MCT4 antibody. Vinculin was used as a loading control. Following overnight incubation at 4° C., the primary antibody was probed with the corresponding secondary antibody and detected using the Odyssey Infrared Imaging System™ (Li-cor Biosciences™) and Image Studio Version 3.1™ (Li-cor Biosciences™). Densitometry analysis was done using ImageJ (U.S. National Institutes of Health, Bethesda, Md.).
row,Substance,% MCT4 Inhibition [%]
1,25 (dT*dT*dC*dC*dC*dA*dA*dG*dC*dC*dC*dC*dG*dC*dC*dA*dC*dG*dA*dA; antisense; listed as Homo sapiens) [compound 25],22.88
2,42 (dT*dG*dT*dC*dG*dC*dT*dG*dT*dA*dG*dC*dC*dG*dA*dT*dC*dC*dC; antisense; listed as Homo sapiens) [compound 42],21.20
3,27 (dA*dC*dC*dT*dC*dC*dC*dC*dG*dT*dT*dT*dT*dT*dC*dT*dC*dA*dG*dG; antisense; listed as Homo sapiens) [compound 27],3.17
4,29 (dT*dC*dT*dG*dT*dA*dC*dC*dT*dC*dC*dT*dC*dC*dC*dT*dG*dT*dG*dC; antisense; listed as Homo sapiens) [compound 29],16.31
5,33 (dC*dC*dC*dA*dC*dC*dA*dT*dG*dC*dC*dG*dT*dA*dG*dG*dA*dG*dA*dT; antisense; listed as Homo sapiens) [compound 33],49.00
6,"13 (AGCACGGCCCAGCCCCAGCC; antisense; DNA, all phosphorothioate, methylation of C not given here; listed as Homo sapiens) [compound 13]",66.85
7,35 (dC*dT*dT*dC*dA*dC*dC*dG*dC*dA*dG*dA*dT*dC*dC*dA*dC*dT*dC*dT; antisense; listed as Homo sapiens) [compound 35],-10.07
8,48 (dC*dC*dA*dT*dG*dG*dC*dC*dA*dG*dG*dA*dG*dG*dG*dT; antisense; listed as Homo sapiens) [compound 48],77.65
9,51 (dC*dC*dT*dT*dC*dC*dC*dT*dG*dA*dA*dG*dG*dT*dT*dC*dC*dT*dC*dC; antisense) [compound 51],0.00
10,"8 (AGCATGGCCAGCAGGATGGA; antisense; DNA, all phosphorothioate, methylation of C not given here; listed as Homo sapiens) [compound 8]",80.77
11,37 (dC*dC*dA*dG*dC*dC*dA*dC*dT*dC*dA*dG*dA*dC*dA*dC*dT*dT*dG*dT; antisense; listed as Homo sapiens) [compound 37],33.14
12,"12 (TAGCGGTTCAGCATGATGA; antisense; DNA, all phosphorothioate, methylation of C not given here; listed as Homo sapiens) [compound 12]",70.36
13,36 (dA*dA*dC*dA*dC*dT*dC*dC*dA*dC*dC*dC*dA*dC*dA*dC*dG*dC*dA*dG; antisense; listed as Homo sapiens) [compound 36],9.33
14,19 (dG*dC*dC*dA*dG*dC*dC*dC*dG*dT*dT*dG*dG*dC*dC*dA*dT*dG*dG*dG; antisense; listed as Homo sapiens) [compound 19],80.26
15,23 (dC*dA*dG*dC*dA*dG*dT*dT*dG*dA*dG*dC*dA*dG*dC*dA*dG*dG*dC*dC; antisense; listed as Homo sapiens) [compound 23],65.41
16,"6 (CCACTCTGGAATGACACGGT; antisense; DNA, all phosphorothioate, methylation of C not given here; listed as Homo sapiens) [compound 6]",78.67
17,"44 (TTGCGGCTTGGCTTCACCG; listed as DNA, chemistry not fully specified; listed as Homo sapiens) [compound 44]",31.16
18,26 (dA*dA*dT*dG*dC*dT*dC*dC*dA*dC*dC*dT*dC*dC*dC*dG*dC*dA*dA*dG; antisense; listed as Homo sapiens) [compound 26],9.55
19,28 (dT*dG*dT*dG*dA*dA*dC*dC*dA*dC*dC*dT*dC*dC*dC*dC*dG*dT*dT*dT; antisense; listed as Homo sapiens) [compound 28],29.91

row,Substance,% MCT4 Inhibition [%]
1,41 (dG*dC*dT*dT*dC*dT*dG*dT*dA*dC*dC*dT*dC*dC*dT*dC*dC*dC*dT*dG; antisense; listed as Homo sapiens) [compound 41],17.02
2,"7 (GTAGGAGAAGCCAGTGATGAC; antisense; DNA, all phosphorothioate, methylation of C not given here; listed as Homo sapiens) [compound 7]",66.31
3,39 (dC*dC*dT*dG*dA*dG*dC*dC*dA*dG*dT*dC*dC*dA*dG*dT*dT*dT*dG*dT; antisense; listed as Homo sapiens) [compound 39],39.46
4,40 (dC*dC*dC*dA*dC*dC*dC*dA*dC*dC*dC*dT*dC*dC*dC*dA*dT*dT*dA*dA; antisense; listed as Homo sapiens) [compound 40],-42.05
5,"9 (GGCTGGAAGTTGAGTGCCAA; antisense; DNA, all phosphorothioate, methylation of C not given here; listed as Homo sapiens) [compound 9]",76.03
6,34 (dA*dG*dT*dC*dC*dA*dC*dC*dC*dC*dC*dG*dA*dG*dT*dC*dT*dG*dC*dA; antisense; listed as Homo sapiens) [compound 34],20.5
7,21 (dG*dC*dA*dC*dA*dC*dA*dG*dG*dA*dA*dG*dA*dC*dA*dG*dG*dG*dC*dT; antisense; listed as Homo sapiens) [compound 21],60.36
8,20 (dA*dG*dG*dA*dA*dG*dA*dC*dA*dG*dG*dG*dC*dT*dA*dC*dC*dT*dG*dC; antisense; listed as Homo sapiens) [compound 20],66.26
9,24 (dG*dA*dC*dC*dT*dG*dT*dC*dC*dC*dG*dT*dA*dG*dA*dG*dC*dA*dT*dG; antisense; listed as Homo sapiens) [compound 24],47.24
10,50 (dT*dC*dC*dC*dA*dT*dG*dG*dC*dC*dA*dG*dG*dA*dG*dG; antisense; listed as Homo sapiens) [compound 50],30.52
11,31 (dG*dC*dC*dC*dA*dC*dC*dC*dA*dC*dC*dC*dT*dC*dC*dC*dA*dT*dT*dA; antisense; listed as Homo sapiens) [compound 31],-43.4
12,47 (dC*dA*dT*dG*dG*dC*dC*dA*dG*dG*dA*dG*dG*dG*dT*dT; antisense; listed as Homo sapiens) [compound 47],81.21
13,17 (dG*dA*dA*dG*dT*dT*dG*dA*dG*dT*dG*dC*dC*dA*dA*dA*dC*dC*dC*dA*dA; antisense; listed as Homo sapiens) [compound 17],70.93
14,"2 (GTCCCGGAAGACGCTCAGGT; antisense; DNA, all phosphorothioate, methylation of C not given here; listed as Homo sapiens) [compound 2]",86.33
15,46 (dA*dT*dG*dG*dC*dC*dA*dG*dG*dA*dG*dG*dG*dT*dT*dG; antisense; listed as Homo sapiens) [compound 46],76.03
16,"14 (GAGCTCCTTGAAGAAGACACT; antisense; DNA, all phosphorothioate, methylation of C not given here; listed as Homo sapiens) [compound 14]",72.00
17,49 (dC*dC*dC*dA*dT*dG*dG*dC*dC*dA*dG*dG*dA*dG*dG*dG; antisense; listed as Homo sapiens) [compound 49],65.76
18,32 (dA*dA*dG*dA*dG*dA*dC*dC*dC*dC*dC*dC*dA*dC*dA*dA*dG*dC*dA*dT; antisense; listed as Homo sapiens) [compound 32],18.67
19,"10 (CATGCCGTAGGAGATGCCAA; antisense; DNA, all phosphorothioate, methylation of C not given here; listed as Homo sapiens) [compound 10]",76.51

# Same assay, conditions: Table B; SEQ ID NO 1 and 16 mer truncations
row,Substance,% MCT4 Inhibition [%]
1,48 (dC*dC*dA*dT*dG*dG*dC*dC*dA*dG*dG*dA*dG*dG*dG*dT; antisense; listed as Homo sapiens) [compound 48],77.65
2,50 (dT*dC*dC*dC*dA*dT*dG*dG*dC*dC*dA*dG*dG*dA*dG*dG; antisense; listed as Homo sapiens) [compound 50],30.52
3,47 (dC*dA*dT*dG*dG*dC*dC*dA*dG*dG*dA*dG*dG*dG*dT*dT; antisense; listed as Homo sapiens) [compound 47],81.21
4,46 (dA*dT*dG*dG*dC*dC*dA*dG*dG*dA*dG*dG*dG*dT*dT*dG; antisense; listed as Homo sapiens) [compound 46],76.03
5,49 (dC*dC*dC*dA*dT*dG*dG*dC*dC*dA*dG*dG*dA*dG*dG*dG; antisense; listed as Homo sapiens) [compound 49],65.76
